According to patent US20130184222A1, “[…] ACTIVE COMPOSITIONS AND THEIR METHODS OF USE” (AGIOS PHARMACEUTICALS, INC, priority 2010, published 2013):
pIC50: −log10 of the molar value.

Key:
U87MG cells = experiment: Cellular assay: inhibition of 2-HG production in U87MG cells (LC-MS, 48 hours); type: cell-based; conditions: Homo sapiens, U-87 MG, 2-HG in media by LC-MS
Description: (§1) Cells (HT1080 or U87MG) were grown in T125 flasks in DMEM containing 10% FBS, 1× penicillin/streptomycin and 500 ug/mL G418 (present in U87MG cells only). They were harvested by trypsin and seeded into 96 well white bottom plates at a density of 5000 cell/well in 100 ul/well in DMEM with 10% FBS. No cells were placed in columns 1 and 12. Cells were incubated overnight at 37° C. in 5% CO2. The next day test compounds were made up at 2× the final concentration and 100 ul were added to each cell well. The final concentration of DMSO was 0.2% and the DMSO control wells were plated in row G. The plates were then placed in the incubator for 48 hours. At 48 hours, 100 ul of media was removed from each well and analyzed by LC-MS for 2-HG concentrations. The cell plate was placed back in the incubator for another 24 hours. At 72 hours post compound addition, 10 mL/plate of Promega Cell Titer Glo reagent was thawed and mixed. The cell plate was removed from the incubator and allowed to equilibrate to room temperature. Then 100 ul of Promega Cell Titer Glo reagent was added to each well of media. The cell plate was then placed on an orbital shaker for 10 minutes and then allowed to sit at room temperature for 20 minutes. The plate was then read for luminescence with an integration time of 500 ms.

IDH1 R132H = IDH1 R132H (Homo sapiens, UniProt O75874, R132H); experiment: In vitro assay for IDH1 R132H inhibitors (NADPH/aKG, resazurin detection); type: biochemical; conditions: Table 4B; 0.2 μg/ml IDH1 R132H, 50 minutes at room temperature; read-out: IC50, IDH1 R132H Inhibition
Chain of IDH1 R132H (O75874 whole entry R132H): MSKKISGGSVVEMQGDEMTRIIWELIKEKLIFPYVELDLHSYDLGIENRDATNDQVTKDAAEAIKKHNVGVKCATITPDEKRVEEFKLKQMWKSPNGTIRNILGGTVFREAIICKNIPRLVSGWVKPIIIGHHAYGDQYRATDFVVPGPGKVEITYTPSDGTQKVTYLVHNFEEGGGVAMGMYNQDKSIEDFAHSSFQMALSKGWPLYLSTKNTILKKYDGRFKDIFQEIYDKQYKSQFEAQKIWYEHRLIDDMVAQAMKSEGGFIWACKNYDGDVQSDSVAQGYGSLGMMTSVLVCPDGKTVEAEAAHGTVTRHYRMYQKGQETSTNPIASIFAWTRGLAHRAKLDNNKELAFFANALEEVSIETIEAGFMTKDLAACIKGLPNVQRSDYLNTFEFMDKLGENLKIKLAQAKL
In short: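 Buffer: 150 mM NaCl, 10 mM MgCl2, 20 mM Tris pH 7.5, 0.03% BSA. Compound was added to substrate mix (8 uM NADPH, 2 mM aKG), then enzyme mix (0.2 μg/ml IDH1 R132H), and incubated 50 min at room temperature. Remaining NADPH was read by resazurin (30 μM in detection mix) to resorufin fluorescence after 5 min, Ex544/Em590.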

HT1080 cells = experiment: Cellular assay: inhibition of 2-HG production in HT1080 cells (LC-MS, 48 hours); type: cell-based; conditions: Homo sapiens, HT-1080, 2-HG in media by LC-MS
Description: as §1

Row | Compound | pIC50 (U87MG cells) | pIC50 (IDH1 R132H) | pIC50 (HT1080 cells)
1 | Cc1ccccc1C(C(=O)NC1CCCCC1)N(C(=O)CN1CCCc2ccccc21)c1cccc(F)c1 (centres unmarked) [Compound 160] | 6.00 to 6.60 | ≥ 7.00 | ≥ 6.60
2 | Cc1ccccc1C(C(=O)NC1CCCCC1)N(C(=O)C(=O)c1nccn1C)c1cccc(F)c1 (centres unmarked) [Compound 284] | 5.30 to 6.00 | 6.00 to 7.00 | 6.00 to 6.60
3 | Cc1ccccc1C(C(=O)NC1CCCCC1)N(C(=O)C(=O)c1c[nH]c2ccncc12)c1cccc(F)c1 (centres unmarked) [Compound 269] | 5.30 to 6.00 | 6.00 to 7.00 | 5.30 to 6.00
4 | Cc1ccccc1C(C(=O)NC1CCCCC1)N(C(=O)Cn1ccc2ncccc21)c1cccc(F)c1 (centres unmarked) [Compound 252] | 6.00 to 6.60 | 6.00 to 7.00 | 5.30 to 6.00
5 | Cc1ccccc1C(C(=O)NC1CCCCC1)N(Cc1nccs1)C(=O)Cn1ccnc1 (centres unmarked) [Compound 304] | 6.00 to 6.60 | 6.00 to 7.00 | < 5.30
6 | Cc1ccccc1C(C(=O)NC1CCCCC1)N(C(=O)CNc1ccccc1C#N)c1cccc(F)c1 (centres unmarked) [Compound 278] | ≥ 6.60 | 6.00 to 7.00 | ≥ 6.60
7 | Cc1ccccc1C(C(=O)NC1CCCCC1)N(C(=O)Cn1ccnc1C)c1cccc(N)c1 (centres unmarked) [Compound 226] | ≥ 6.60 | 6.00 to 7.00 | 5.30 to 6.00
8 | Cc1ccccc1C(C(=O)NC1CCCCC1)N(C(=O)CNc1ccccn1)c1cccc(F)c1 (centres unmarked) [Compound 316] | 6.00 to 6.60 | ≥ 7.00 | ≥ 6.60
9 | Cc1ccccc1C(C(=O)NC1CCCCC1)N(C(=O)CN1CCOCC1)c1cccc(F)c1 (centres unmarked) [Compound 134] | 5.30 to 6.00 | 6.00 to 7.00 | 6.00 to 6.60
10 | Cc1ccccc1C(C(=O)NC1CCCCC1)N(C(=O)COc1ccccn1)c1cccc(F)c1 (centres unmarked) [Compound 198] | 6.00 to 6.60 | ≥ 7.00 | ≥ 6.60
11 | COc1ccccc1CNCC(=O)N(c1cccc(F)c1)C(C(=O)NC1CCCCC1)c1ccccc1C (centres unmarked) [Compound 220] | 5.30 to 6.00 | 6.00 to 7.00 | 5.30 to 6.00
12 | Cc1ccccc1C(C(=O)NC1CC2CC2C1)N(C(=O)CNc1ncccc1F)c1cccc(F)c1 (centres unmarked) [Compound 333] | 5.30 to 6.00 | 6.00 to 7.00 | ≥ 6.60
13 | Cc1ccccc1C(C(=O)NC1CCCCC1)N(C(=O)CNc1ccc(-c2nnn[nH]2)cc1)c1cccc(F)c1 (centres unmarked) [Compound 285] |  | 6.00 to 7.00 | < 5.30
14 | Cc1ccccc1C(C(=O)NC1CCCCC1)N(C(=O)COc1cccnn1)c1cccc(F)c1 (centres unmarked) [Compound 273] | 6.00 to 6.60 | 6.00 to 7.00 | 6.00 to 6.60
15 | O=C(NC1CCCCC1)C(c1ccccc1F)N(C(=O)Cn1cnc2ccccc21)c1cccc(F)c1 (centres unmarked) [Compound 321] | ≥ 6.60 | ≥ 7.00 | ≥ 6.60
16 | Cc1ccccc1C(C(=O)NC1CCCCC1)N(C(=O)CNc1ccnc(F)c1)c1cccc(F)c1 (centres unmarked) [Compound 280] | 5.30 to 6.00 | 6.00 to 7.00 | 5.30 to 6.00
17 | Cc1ccccc1C(C(=O)NC1CCCCC1)N(C(=O)C(=O)c1c[nH]c2ccccc12)c1cccc(F)c1 (centres unmarked) [Compound 262] | 5.30 to 6.00 | 6.00 to 7.00 | 5.30 to 6.00
18 | Cc1ccccc1C(C(=O)NC1CCCCC1)N(C(=O)CNCCc1cccnc1)c1cccc(F)c1 (centres unmarked) [Compound 193] | 5.30 to 6.00 | 6.00 to 7.00 | 6.00 to 6.60
19 | Cc1ccccc1C(C(=O)NC1CCCCC1)N(C(=O)CNc1cc(F)ccn1)c1cccc(F)c1 (centres unmarked) [Compound 287] | ≥ 6.60 | ≥ 7.00 | ≥ 6.60
20 | Cc1ccccc1C(C(=O)NC1CCCCC1)N(C(=O)CNc1cccc(C#N)c1)c1cccc(F)c1 (centres unmarked) [Compound 265] | 6.00 to 6.60 | ≥ 7.00 | ≥ 6.60
21 | Cc1ccccc1C(C(=O)NC1CCCCC1)N(C(=O)Cn1cnc2ccccc21)c1ccn(C)n1 (centres unmarked) [Compound 255] | 6.00 to 6.60 | 6.00 to 7.00 | ≥ 6.60
22 | Cc1ccccc1C(C(=O)NC1CCCCC1)N(C(=O)Cn1ccnc1C)c1cccc(Br)c1 (centres unmarked) [Compound 268] | ≥ 6.60 | 6.00 to 7.00 | 5.30 to 6.00
23 | Cc1ccccc1C(C(=O)NC1CCCCC1)N(Cc1nccs1)C(=O)Cn1nnc2ccccc21 (centres unmarked) [Compound 205] | 5.30 to 6.00 | 6.00 to 7.00 | 5.30 to 6.00
24 | Cc1ccccc1C(C(=O)NC1CCCCC1)N(C(=O)CNc1ccc(C#N)cc1)c1cccc(F)c1 (centres unmarked) [Compound 227] | ≥ 6.60 | ≥ 7.00 | ≥ 6.60
